Source: the OligoGym collection
“And” between values parts separate entries of the source, which are not always exact repeats. Identical values can stand only once. After the bases stand the sugars from the 5' end (letter, count) and the backbone: PS all phosphorothioate, else s phosphorothioate and o phosphodiester by linkage. Methylation of C is not given here. k = constrained ethyl (cEt); d = 2'-deoxy (DNA)

Target: MALAT1
Conditions: ASO, A431, 0.005 µM

| Sequence | target mRNA inhibition |
| --- | --- |
| TAGAGCTACTTAGCTG (sugars k3 d10 k3, PS) | 18% |
| TAGATTCCGTAACTTT (sugars k3 d10 k3, PS) | 58% |
| TAGCAGTAACATCTGA (sugars k3 d10 k3, PS) | 46% |
| TAGGCCATCATACTGC (sugars k3 d10 k3, PS) | 6% |
| TAGGTATAGTTTACCA (sugars k3 d10 k3, PS) | 2% |
| TAGTAACCTATTGACT (sugars k3 d10 k3, PS) | -36% |
| TAGTAGCTTTTTGATG (sugars k3 d10 k3, PS) | 31% |
| TAGTCTGAAGAATACC (sugars k3 d10 k3, PS) | 23% |
| TAGTTAATGTCAGCCC (sugars k3 d10 k3, PS) | 41% |
| TAGTTGGCATCAAGGC (sugars k3 d10 k3, PS) | 72% and 69% |
| TATAGACCCCTGACTT (sugars k3 d10 k3, PS) | 42% |
| TATAGACGGAGAACAA (sugars k3 d10 k3, PS) | 30% |
| TATAGCATCTGTGGAA (sugars k3 d10 k3, PS) | 20% |
| TATATAAGGTCAATAG (sugars k3 d10 k3, PS) | 5% |
| TATATTTAAGGCCTTC (sugars k3 d10 k3, PS) | 45% |
| TATCAATTCACCAAGG (sugars k3 d10 k3, PS) | 1% |
| TATCACTCAGCTGGAT (sugars k3 d10 k3, PS) | 34% |
| TATCTTCACCACGAAC (sugars k3 d10 k3, PS) | 0% |
| TATGACACTTTCCTTG (sugars k3 d10 k3, PS) | 25% |
| TATTAAGAGCTGCTAT (sugars k3 d10 k3, PS) | 25% |
| TATTCCTTTCATAGAG (sugars k3 d10 k3, PS) | 11% |
| TATTGGAAAACTTAAC (sugars k3 d10 k3, PS) | 26% |
| TCAACAATCACTACTC (sugars k3 d10 k3, PS) | 16% |

| Sequence | target mRNA inhibition |
| --- | --- |
| TCAACATTTGGCCTAC (sugars k3 d10 k3, PS) | 21% |
| TCAAGCATTCCTTCGG (sugars k3 d10 k3, PS) | 73% and 67% |
| TCAAGGCACTGATCAC (sugars k3 d10 k3, PS) | 49% |
| TCAATCACAAATACGA (sugars k3 d10 k3, PS) | 30% |
| TCAATTTATAGACCCC (sugars k3 d10 k3, PS) | 47% |
| TCACAAGGCAAATCGC (sugars k3 d10 k3, PS) | 7% |
| TCACCAAATCGCACTG (sugars k3 d10 k3, PS) | 20% |
| TCACCTTCGGTTTAAT (sugars k3 d10 k3, PS) | 28% |
| TCAGACCTTCTGAACC (sugars k3 d10 k3, PS) | -6% |
| TCAGGGTTATGCTTAT (sugars k3 d10 k3, PS) | 64% and 59% |
| TCATTGGGAGTTACTT (sugars k3 d10 k3, PS) | 57% |
| TCCAAGAACTAGCACC (sugars k3 d10 k3, PS) | -5% |
| TCCACCCCCACGCCAA (sugars k3 d10 k3, PS) | -9% |
| TCCACTTGATCCCAAC (sugars k3 d10 k3, PS) | 47% and 56% |
| TCCAGGACTTGGCAGT (sugars k3 d10 k3, PS) | 23% |
| TCCAGTCTACAAGTTA (sugars k3 d10 k3, PS) | 31% |
| TCCCAACCGTAACAGG (sugars k3 d10 k3, PS) | 2% |
| TCCCCAATCAAGATTT (sugars k3 d10 k3, PS) | 18% |
| TCCCTGAAGGTGTTCG (sugars k3 d10 k3, PS) | 18% |
| TCCCTTTACACCTCAG (sugars k3 d10 k3, PS) | 25% |
| TCCTACCACTCCCAAT (sugars k3 d10 k3, PS) | 30% |
| TCCTAGCTTCACCACC (sugars k3 d10 k3, PS) | 44% |
| TCCTGATCTGGTCCAT (sugars k3 d10 k3, PS) | 42% |

| Sequence | target mRNA inhibition |
| --- | --- |
| TCCTGCGACTTGCTCC (sugars k3 d10 k3, PS) | 15% |
| TCCTTAGTTGGCATCA (sugars k3 d10 k3, PS) | 76% and 68% |
| TCCTTCGGATGCTTCA (sugars k3 d10 k3, PS) | 56% |
| TCGATGGAAAAATTTC (sugars k3 d10 k3, PS) | 30% |
| TCGCAGACAAAGTTTC (sugars k3 d10 k3, PS) | 31% |
| TCGCATCACCGGAATT (sugars k3 d10 k3, PS) | 4% |
| TCGCCTTCAAATTATT (sugars k3 d10 k3, PS) | 35% |
| TCGGATGCTTCACTCC (sugars k3 d10 k3, PS) | 37% |
| TCTAAAAGCATTGCCC (sugars k3 d10 k3, PS) | 29% |
| TCTAACAGCACATCAT (sugars k3 d10 k3, PS) | 22% |
| TCTAAGATTGTAAGCA (sugars k3 d10 k3, PS) | 53% |
| TCTAATAGCAGCGGGA (sugars k3 d10 k3, PS) | 16% |
| TCTACAAGTTACATGT (sugars k3 d10 k3, PS) | 23% |
| TCTCAATTTGGCTATC (sugars k3 d10 k3, PS) | 29% |
| TCTCAGGGTTATGCTT (sugars k3 d10 k3, PS) | 59% and 81% |
| TCTCATACACTCACTA (sugars k3 d10 k3, PS) | 11% |
| TCTCATTTATTTCGGC (sugars k3 d10 k3, PS) | 79% and 93% |
| TCTCCAATGGACATCT (sugars k3 d10 k3, PS) | 8% |
| TCTCCGAAGACACAGA (sugars k3 d10 k3, PS) | 0% |
| TCTGATCTGCGGCCCC (sugars k3 d10 k3, PS) | -18% |
| TCTGCGGTTTCCTCAA (sugars k3 d10 k3, PS) | 49% |
| TCTTAACAGCTTATGG (sugars k3 d10 k3, PS) | 31% |
| TCTTAACTCAAAGTCC (sugars k3 d10 k3, PS) | 39% |

| Sequence | target mRNA inhibition |
| --- | --- |
| TCTTAATCAGTTACAA (sugars k3 d10 k3, PS) | 9% |
| TCTTACTTGATAATAC (sugars k3 d10 k3, PS) | 10% |
| TCTTGAATTACTTCCG (sugars k3 d10 k3, PS) | 76% and 55% |
| TGAAAACCCACTCTTG (sugars k3 d10 k3, PS) | 0% |
| TGAAAACTCCCCCCCG (sugars k3 d10 k3, PS) | 21% |
| TGAACTATCACAATTC (sugars k3 d10 k3, PS) | 24% |
| TGAAGCATACCTTAAC (sugars k3 d10 k3, PS) | 31% |
| TGAAGTCAAGACAACT (sugars k3 d10 k3, PS) | 1% |
| TGACAAGCAATTAACT (sugars k3 d10 k3, PS) | 28% |
| TGACTGAATATGAACC (sugars k3 d10 k3, PS) | 41% |
| TGAGGGACAGTAGGTA (sugars k3 d10 k3, PS) | 18% |
| TGAGTATGCTGATAAA (sugars k3 d10 k3, PS) | 41% |
| TGAGTGGTTTTATCTA (sugars k3 d10 k3, PS) | 7% |
| TGATCTGACTTTGTAT (sugars k3 d10 k3, PS) | 47% |
| TGCAAGTTAAACTTAT (sugars k3 d10 k3, PS) | 25% |
| TGCAGGCAAATTAATG (sugars k3 d10 k3, PS) | 11% |
| TGCCAACTAATTGCCA (sugars k3 d10 k3, PS) | 23% |
| TGCCAACTTGGAAGTT (sugars k3 d10 k3, PS) | 32% |
| TGCCACAGGAAGGCTC (sugars k3 d10 k3, PS) | -10% |
| TGCCTTAAAGTTACAT (sugars k3 d10 k3, PS) | 19% |
| TGCGCTTAAGAGGGCA (sugars k3 d10 k3, PS) | 7% |
| TGCTCGCCTCCTCCGT (sugars k3 d10 k3, PS) | 34% |
| TGCTTACACACAACTG (sugars k3 d10 k3, PS) | 35% |

| Sequence | target mRNA inhibition |
| --- | --- |
| TGGAACTTGAATGCAA (sugars k3 d10 k3, PS) | 10% |
| TGGCCCTTCGCATACG (sugars k3 d10 k3, PS) | 28% |
| TGGCGGACTTTCTCCC (sugars k3 d10 k3, PS) | 9% |
| TGGTCTAGGATCCTCT (sugars k3 d10 k3, PS) | -15% |
| TGGTTATAGCTTGACA (sugars k3 d10 k3, PS) | 82% and 95% |
| TGTAAGAATTAAGACC (sugars k3 d10 k3, PS) | 18% |
| TGTATATAGTTCAAAG (sugars k3 d10 k3, PS) | 9% |
| TGTCTAAGAGGTTATT (sugars k3 d10 k3, PS) | 10% |
| TGTTAACAATTTGCAG (sugars k3 d10 k3, PS) | 20% |
| TGTTAAGACCATCCCA (sugars k3 d10 k3, PS) | 9% |
| TGTTAAGAGAAGCCCA (sugars k3 d10 k3, PS) | 2% |
| TGTTACACCTTGAGTC (sugars k3 d10 k3, PS) | 37% |
| TTAAACGGGTCATCAA (sugars k3 d10 k3, PS) | 0% |
| TTAAAGAGTGTTCGCA (sugars k3 d10 k3, PS) | 59% and 39% |
| TTAACCAACTTCCCCT (sugars k3 d10 k3, PS) | 43% |
| TTAAGACCATCCCAAA (sugars k3 d10 k3, PS) | 5% |
| TTAATGCACTGGTACA (sugars k3 d10 k3, PS) | 22% |
| TTACACCTTGAGTCAT (sugars k3 d10 k3, PS) | 21% |
| TTACACTGCTCTGGGT (sugars k3 d10 k3, PS) | 2% |
| TTACAGAAGTCTCGGG (sugars k3 d10 k3, PS) | 11% |
| TTACATGTTCCCACCC (sugars k3 d10 k3, PS) | 19% |
| TTACCAACCACTCGCT (sugars k3 d10 k3, PS) | 2% |
